The NIST ThermoML archive (doi:10.1016/j.jct.2018.09.029)
Numbers after ± are expanded uncertainties.

Assay: Boiling temperature at pressure P
Settings: 82.6 kPa; Liquid; Ebulliometric method (Recirculating still)

With `O` [water] the “Boiling temperature at pressure P” value was 94.41 ± 0.63 °C.
